Source: US20230173113A1, “CYCLIC PEPTIDES AND THEIR CONJUGATES FOR ADDRESSING ALPHA-V-BETA-6 INTEGRIN IN VIVO” (Technische Universität München, priority 2020, published 2023)

What was measured:
[1] = system: H2009 tumor-bearing SCID mice; experiment: biokinetics from 90-min dynamic PET scans; conditions: mouse, in vivo
Excerpt: All animal studies have been performed in accordance with general animal welfare regulations in Germany and the institutional guidelines for the care and use of animals. H2009 human lung adenocarcinoma cells (CRL-5911; American Type Culture Collection) were cultivated as recommended by the distributor. To generate tumor xenografts, 6- to 8-week-old female CB17 SCID mice (Charles River) were inoculated with 10^7 H2009 cells in Matrigel (CultrexBME, type 3 PathClear; Trevigen, GENTAUR GmbH). Mice were used for biodistribution or PET studies when tumors had grown to a diameter of 10-12 mm (4-6 weeks after inoculation).
Mice were anaesthetized with isoflurane for intravenous administration of the radiolabeled compounds. The administered activity per mouse ranged between 10 and 15 MBq (100-200 pmol, depending on variations in timing of production and administration). PET imaging was performed on a Siemens Inveon small-animal PET system, either dynamic under isoflurane anaesthesia for 90 min, or as single frames 75 min p.i. with an acquisition time of 20 min. Data were reconstructed using Siemens Inveon Research Workspace software, employing a three-dimensional ordered subset expectation maximum (OSEM3D) algorithm without scatter and attenuation correction. For kinetic analyses, regions of interest (ROIs) were defined manually.

αvβ3 = αvβ3 (Homo sapiens, UniProt P05106+P06756); conditions: cited from earlier work
αvβ6-integrin = αvβ6-integrin (Homo sapiens, UniProt P06756+P18564); conditions: cited from earlier work
Chain of αvβ6-integrin (P06756 31-992 limits assumed): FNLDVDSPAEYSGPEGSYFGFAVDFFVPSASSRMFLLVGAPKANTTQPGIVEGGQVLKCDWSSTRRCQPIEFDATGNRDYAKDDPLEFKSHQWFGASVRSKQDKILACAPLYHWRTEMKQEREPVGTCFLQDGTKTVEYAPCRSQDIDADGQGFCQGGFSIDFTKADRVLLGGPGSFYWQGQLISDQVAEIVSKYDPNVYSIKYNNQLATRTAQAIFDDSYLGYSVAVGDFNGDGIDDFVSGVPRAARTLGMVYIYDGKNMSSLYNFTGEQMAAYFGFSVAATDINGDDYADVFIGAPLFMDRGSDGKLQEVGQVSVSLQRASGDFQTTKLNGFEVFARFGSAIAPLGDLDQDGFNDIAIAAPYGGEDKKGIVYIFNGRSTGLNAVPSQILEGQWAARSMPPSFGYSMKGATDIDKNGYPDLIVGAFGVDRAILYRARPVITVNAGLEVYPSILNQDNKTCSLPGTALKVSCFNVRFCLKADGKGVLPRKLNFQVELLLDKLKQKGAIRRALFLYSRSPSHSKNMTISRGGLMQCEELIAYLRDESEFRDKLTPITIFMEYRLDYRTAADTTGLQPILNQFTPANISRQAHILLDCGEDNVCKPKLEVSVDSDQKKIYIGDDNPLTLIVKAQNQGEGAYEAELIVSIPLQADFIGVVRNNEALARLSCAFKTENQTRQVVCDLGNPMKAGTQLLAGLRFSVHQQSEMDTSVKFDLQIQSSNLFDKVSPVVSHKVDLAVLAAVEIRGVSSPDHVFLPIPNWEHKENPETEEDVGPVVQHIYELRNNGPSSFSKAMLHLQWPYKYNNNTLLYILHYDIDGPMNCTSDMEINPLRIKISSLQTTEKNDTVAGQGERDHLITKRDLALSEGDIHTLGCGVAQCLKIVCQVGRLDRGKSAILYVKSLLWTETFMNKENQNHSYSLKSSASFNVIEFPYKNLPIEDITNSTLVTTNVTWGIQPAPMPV
Chain of αvβ6-integrin (P18564 22-707 limits assumed): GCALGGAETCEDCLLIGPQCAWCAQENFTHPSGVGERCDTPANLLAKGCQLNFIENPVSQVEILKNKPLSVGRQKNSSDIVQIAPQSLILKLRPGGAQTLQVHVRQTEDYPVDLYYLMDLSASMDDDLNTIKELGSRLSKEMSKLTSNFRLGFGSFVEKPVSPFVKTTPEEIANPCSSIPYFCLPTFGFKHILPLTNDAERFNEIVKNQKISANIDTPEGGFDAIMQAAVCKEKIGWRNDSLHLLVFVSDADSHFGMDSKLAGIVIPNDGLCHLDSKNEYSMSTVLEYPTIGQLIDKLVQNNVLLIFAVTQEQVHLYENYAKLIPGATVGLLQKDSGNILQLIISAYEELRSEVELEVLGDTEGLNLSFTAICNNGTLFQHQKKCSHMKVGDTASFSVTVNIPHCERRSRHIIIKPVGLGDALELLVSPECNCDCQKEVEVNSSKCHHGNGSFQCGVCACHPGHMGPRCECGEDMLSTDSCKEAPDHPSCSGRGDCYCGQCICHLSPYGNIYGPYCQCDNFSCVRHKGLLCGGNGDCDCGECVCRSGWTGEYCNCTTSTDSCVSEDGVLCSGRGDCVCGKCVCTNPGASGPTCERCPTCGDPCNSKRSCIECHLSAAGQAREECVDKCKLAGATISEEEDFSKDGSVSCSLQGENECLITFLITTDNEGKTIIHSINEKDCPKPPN

αvβ5 = αvβ5 (Homo sapiens, UniProt P06756+P18084); conditions: cited from earlier work
Chain of αvβ5 (P06756 31-1048): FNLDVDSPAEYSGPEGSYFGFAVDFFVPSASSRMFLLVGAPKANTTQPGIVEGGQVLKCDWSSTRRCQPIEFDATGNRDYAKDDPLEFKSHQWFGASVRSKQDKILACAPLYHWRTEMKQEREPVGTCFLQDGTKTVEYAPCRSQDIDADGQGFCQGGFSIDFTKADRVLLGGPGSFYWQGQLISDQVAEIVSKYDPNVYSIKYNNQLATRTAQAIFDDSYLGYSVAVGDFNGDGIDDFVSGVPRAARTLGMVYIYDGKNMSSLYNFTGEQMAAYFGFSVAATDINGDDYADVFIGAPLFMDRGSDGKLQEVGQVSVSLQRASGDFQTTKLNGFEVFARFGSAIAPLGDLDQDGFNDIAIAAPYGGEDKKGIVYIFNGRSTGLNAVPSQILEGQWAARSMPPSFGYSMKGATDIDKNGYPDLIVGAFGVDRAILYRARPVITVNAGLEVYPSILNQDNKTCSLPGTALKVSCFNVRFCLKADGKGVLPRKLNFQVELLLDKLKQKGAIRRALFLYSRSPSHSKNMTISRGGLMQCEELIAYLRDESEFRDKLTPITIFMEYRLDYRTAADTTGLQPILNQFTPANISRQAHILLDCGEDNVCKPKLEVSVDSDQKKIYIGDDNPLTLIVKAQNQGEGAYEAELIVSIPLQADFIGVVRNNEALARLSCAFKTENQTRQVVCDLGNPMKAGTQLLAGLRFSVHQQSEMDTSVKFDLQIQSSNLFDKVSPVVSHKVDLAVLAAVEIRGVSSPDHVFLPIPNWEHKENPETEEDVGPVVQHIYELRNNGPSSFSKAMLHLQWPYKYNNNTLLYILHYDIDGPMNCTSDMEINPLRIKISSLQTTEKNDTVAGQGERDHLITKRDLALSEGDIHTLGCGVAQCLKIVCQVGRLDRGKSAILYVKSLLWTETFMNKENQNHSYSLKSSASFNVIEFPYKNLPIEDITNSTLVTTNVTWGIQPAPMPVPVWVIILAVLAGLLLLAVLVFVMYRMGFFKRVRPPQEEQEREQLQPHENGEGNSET
Chain of αvβ5 (P18084 24-799): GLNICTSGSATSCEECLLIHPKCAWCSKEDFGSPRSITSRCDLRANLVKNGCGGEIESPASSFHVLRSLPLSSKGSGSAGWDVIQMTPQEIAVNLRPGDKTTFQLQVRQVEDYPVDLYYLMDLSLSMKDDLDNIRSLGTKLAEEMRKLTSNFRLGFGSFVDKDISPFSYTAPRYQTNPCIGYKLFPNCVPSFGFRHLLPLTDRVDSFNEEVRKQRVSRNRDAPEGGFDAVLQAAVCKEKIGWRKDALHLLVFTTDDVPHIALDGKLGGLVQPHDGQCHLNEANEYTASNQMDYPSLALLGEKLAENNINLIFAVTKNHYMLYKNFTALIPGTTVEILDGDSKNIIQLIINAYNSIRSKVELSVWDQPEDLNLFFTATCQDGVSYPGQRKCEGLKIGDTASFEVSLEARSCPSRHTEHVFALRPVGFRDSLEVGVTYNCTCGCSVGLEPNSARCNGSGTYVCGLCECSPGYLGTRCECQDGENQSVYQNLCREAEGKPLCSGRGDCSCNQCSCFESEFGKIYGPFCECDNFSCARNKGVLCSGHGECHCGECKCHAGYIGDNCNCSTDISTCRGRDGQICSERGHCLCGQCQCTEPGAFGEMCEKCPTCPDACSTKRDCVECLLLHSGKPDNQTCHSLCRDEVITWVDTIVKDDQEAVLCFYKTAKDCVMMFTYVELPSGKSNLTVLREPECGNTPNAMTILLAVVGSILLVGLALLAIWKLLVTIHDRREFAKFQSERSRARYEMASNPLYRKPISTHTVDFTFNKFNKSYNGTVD

[2] = up to 3 h; cited from earlier work
α5β1 = α5β1 (Homo sapiens, UniProt P05556+P08648); conditions: cited from earlier work
Chain of α5β1 (P08648 42-995 limits assumed): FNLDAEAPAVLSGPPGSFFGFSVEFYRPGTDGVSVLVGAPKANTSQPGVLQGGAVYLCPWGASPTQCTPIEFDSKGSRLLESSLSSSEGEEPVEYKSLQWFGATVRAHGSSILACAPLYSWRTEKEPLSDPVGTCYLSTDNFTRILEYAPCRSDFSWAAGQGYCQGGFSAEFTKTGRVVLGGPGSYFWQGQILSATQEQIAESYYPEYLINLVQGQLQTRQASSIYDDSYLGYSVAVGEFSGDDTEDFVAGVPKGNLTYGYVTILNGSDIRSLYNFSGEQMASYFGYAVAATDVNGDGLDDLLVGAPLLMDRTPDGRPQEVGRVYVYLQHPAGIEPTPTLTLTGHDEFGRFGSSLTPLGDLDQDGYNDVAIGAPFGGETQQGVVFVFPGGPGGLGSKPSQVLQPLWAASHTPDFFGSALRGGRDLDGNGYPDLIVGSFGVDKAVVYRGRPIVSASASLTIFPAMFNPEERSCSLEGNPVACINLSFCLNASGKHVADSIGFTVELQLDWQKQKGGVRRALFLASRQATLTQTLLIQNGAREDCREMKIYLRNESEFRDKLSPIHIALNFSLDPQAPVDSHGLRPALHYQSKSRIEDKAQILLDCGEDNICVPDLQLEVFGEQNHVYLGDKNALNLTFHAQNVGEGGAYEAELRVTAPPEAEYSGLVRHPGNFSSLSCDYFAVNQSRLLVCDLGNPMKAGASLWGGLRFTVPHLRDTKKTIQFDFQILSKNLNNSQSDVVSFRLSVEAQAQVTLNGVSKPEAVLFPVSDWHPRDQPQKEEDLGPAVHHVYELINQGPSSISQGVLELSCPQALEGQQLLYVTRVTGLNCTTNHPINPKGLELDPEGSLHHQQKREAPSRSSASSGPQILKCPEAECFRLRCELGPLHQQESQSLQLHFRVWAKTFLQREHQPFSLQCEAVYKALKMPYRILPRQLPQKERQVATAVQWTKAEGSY
Chain of α5β1 (P05556 21-728 limits assumed): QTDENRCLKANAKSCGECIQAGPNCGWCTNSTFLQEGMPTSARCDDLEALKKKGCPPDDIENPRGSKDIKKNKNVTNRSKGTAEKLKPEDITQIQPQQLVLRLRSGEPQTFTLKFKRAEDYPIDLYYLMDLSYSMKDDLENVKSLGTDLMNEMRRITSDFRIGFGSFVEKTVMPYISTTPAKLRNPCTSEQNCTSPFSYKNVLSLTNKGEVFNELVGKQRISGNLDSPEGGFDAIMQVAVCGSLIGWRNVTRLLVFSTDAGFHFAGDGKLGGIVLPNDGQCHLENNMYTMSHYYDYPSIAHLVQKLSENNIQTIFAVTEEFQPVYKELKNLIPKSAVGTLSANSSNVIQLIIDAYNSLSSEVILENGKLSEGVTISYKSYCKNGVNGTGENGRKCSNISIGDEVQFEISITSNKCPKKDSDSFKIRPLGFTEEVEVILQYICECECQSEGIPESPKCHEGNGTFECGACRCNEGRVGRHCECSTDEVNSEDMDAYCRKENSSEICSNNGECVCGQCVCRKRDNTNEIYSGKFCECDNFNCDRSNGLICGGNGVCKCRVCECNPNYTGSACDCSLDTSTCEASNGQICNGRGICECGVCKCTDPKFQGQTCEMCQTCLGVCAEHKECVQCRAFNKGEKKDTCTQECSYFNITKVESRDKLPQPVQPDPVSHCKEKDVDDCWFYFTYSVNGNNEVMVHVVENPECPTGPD

αIIbβ3 = αIIbβ3 (Homo sapiens, UniProt P05106+P08514); conditions: cited from earlier work

Compound | clearance from the blood pool [1] | affinity αvβ3 (selectivity against other integrins) (αvβ3) [nM] | affinity to αvβ6-integrin (αvβ6-integrin) [nM] | affinity αvβ5 (selectivity against other integrins) (αvβ5) [µM] | stability in human plasma [2] | affinity α5β1 (selectivity against other integrins) (α5β1) [nM] | affinity αIIbβ3 (selectivity against other integrins) (αIIbβ3) [µM]
CC(C)C[C@@H]1NC(=O)[C@H](CC(=O)O)NC(=O)CNC(=O)[C@H](CCCNC(=N)N)NC(=O)[C@H](Cc2ccc(O)cc2)NC(=O)[C@H](CCCCNC(=O)CCc2cn(CCCNC(=O)CCP(=O)(O)CN3CCN(CP(=O)(O)CCC(=O)NCCCn4cc(CCC(=O)NCCCC[C@H]5C(=O)N[C@@H](Cc6ccc(O)cc6)C(=O)N[C@@H](CCCNC(=N)N)C(=O)NCC(=O)N[C@@H](CC(=O)O)C(=O)N[C@@H](CC(C)C)C(=O)N[C@@H](C)C(=O)N[C@@H](Cc6ccccc6)C(=O)N6CCC[C@@H]6C(=O)N5C)nn4)CCN(CP(=O)(O)CCC(=O)NCCCn4cc(CCC(=O)NCCCC[C@H]5C(=O)N[C@@H](Cc6ccc(O)cc6)C(=O)N[C@@H](CCCNC(=N)N)C(=O)NCC(=O)N[C@@H](CC(=O)O)C(=O)N[C@@H](CC(C)C)C(=O)N[C@@H](C)C(=O)N[C@@H](Cc6ccccc6)C(=O)N6CCC[C@@H]6C(=O)N5C)nn4)CC3)nn2)N(C)C(=O)[C@H]2CCCN2C(=O)[C@H](Cc2ccccc2)NC(=O)[C@H](C)NC1=O [Ga-68-C-9, metal not drawn] | much faster than that of Ga-68-TRAP(Phe2)3 |  |  |  |  |  | 
cyclo(FRGDLAFp(NMe)K) [Phe2] |  | 632 | 0.26 | > 1 | full stability | 73 | > 1
